Source: US12521441B2, “Modified IL-2 polypeptides and uses thereof” (Bright Peak Therapeutics AG, priority 2020, dated 2026)
pEC50, pKd: −log10 of the molar value.

Assays:
[1] = target: T1, human IL2 receptor alpha (CD25) (Homo sapiens, UniProt P01589); assay: Surface plasmon resonance binding to IL-2R alpha monomer subunit; conditions: SPR
T1 construct: purchased Abcam Ab221397
T1 sequence (P01589 22-272): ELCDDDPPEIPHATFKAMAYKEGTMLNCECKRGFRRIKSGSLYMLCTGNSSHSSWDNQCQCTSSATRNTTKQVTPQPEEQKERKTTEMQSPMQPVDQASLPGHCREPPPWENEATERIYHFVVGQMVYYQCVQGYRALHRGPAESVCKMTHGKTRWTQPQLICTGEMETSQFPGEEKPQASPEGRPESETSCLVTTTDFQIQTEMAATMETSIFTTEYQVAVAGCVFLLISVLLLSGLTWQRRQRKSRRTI
Procedure: (§1) The interaction of the IL-2 polypeptides with human IL-2 receptor subunits were measured with Surface Plasmon Resonance (SPR) technology at Crelux, a Wuxi AppTec company, Martinsried, GER. For these studies, anti-His antibodies were bound by amine coupling onto a CMS chip to capture 42 nM of His tagged human IL2 receptor alpha (Abcam, Ab221397) or of His tagged human IL2 receptor beta (Abcam, Ab174003). In other settings, 42 nM of alpha and beta IL2 receptors were mixed and pre-incubated for 30 min before capture of the alpha/beta heterodimer IL2 receptor.
(§2) Regeneration of the surface back to amine coupled anti His antibody was done after every concentration of analyte. To measure the protein association to the receptors, the samples were injected with a flow rate of 50 ul/min for 30 s, followed by 180s buffer only to detect the dissociation. The used running buffer was 1×PBS with 0.05% Tween20. The relative response units (RU, Y-axis) are plotted against time (s, X-axis) and analyzed in a kinetic 1:1 binding model for the monomer receptor binding and with a kinetic heterogenous ligand fit model for the alpha/beta heterodimer binding.
NT indicates the IL-2 polypeptide as not tested.

[2] = target: T2, human IL2 receptor beta (CD122) (Homo sapiens, UniProt P14784); assay: Surface plasmon resonance binding to IL-2R beta monomer subunit; conditions: SPR
T2 construct: purchased Abcam Ab174003
T2 sequence (P14784 27-551): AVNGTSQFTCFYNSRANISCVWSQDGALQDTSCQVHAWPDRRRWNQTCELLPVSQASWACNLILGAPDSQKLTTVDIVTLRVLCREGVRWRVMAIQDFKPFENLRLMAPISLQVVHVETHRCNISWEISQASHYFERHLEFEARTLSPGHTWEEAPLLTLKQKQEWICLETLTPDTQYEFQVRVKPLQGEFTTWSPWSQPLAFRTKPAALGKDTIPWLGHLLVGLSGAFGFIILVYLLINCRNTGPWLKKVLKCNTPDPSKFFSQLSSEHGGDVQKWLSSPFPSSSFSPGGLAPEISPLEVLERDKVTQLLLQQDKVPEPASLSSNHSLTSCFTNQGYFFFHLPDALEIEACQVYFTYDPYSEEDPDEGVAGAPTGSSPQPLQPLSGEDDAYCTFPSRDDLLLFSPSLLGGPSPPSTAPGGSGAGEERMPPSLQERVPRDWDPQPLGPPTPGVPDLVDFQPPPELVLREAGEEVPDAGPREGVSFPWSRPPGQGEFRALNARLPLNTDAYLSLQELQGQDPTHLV
Procedure: as §1, §2
NT indicates the IL-2 polypeptide was not tested.

[3] = target: T3, alpha/beta heterodimer IL2 receptor (Homo sapiens, UniProt P14784); assay: Surface plasmon resonance binding to IL2R alpha/beta heterodimer
T3 construct: purchased Abcam Ab221397; Ab174003
T3 sequence (P14784 27-239 limits assumed): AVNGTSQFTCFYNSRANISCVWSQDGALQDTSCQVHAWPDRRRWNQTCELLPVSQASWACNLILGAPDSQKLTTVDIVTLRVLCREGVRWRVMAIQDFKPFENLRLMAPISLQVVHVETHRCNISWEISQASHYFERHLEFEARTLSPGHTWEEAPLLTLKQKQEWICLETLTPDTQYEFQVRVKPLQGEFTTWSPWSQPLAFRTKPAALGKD
Procedure: as §1, §2
Additional surface plasmon resonance experiments were performed to determine the binding characteristics of the modified IL-2 polypeptides with IL2R alpha/beta heterodimers. The experiments were performed as indicated above, but the monomeric subunits were replaced with the IL2R heterodimers. […] In the table below, NT indicates the composition was not tested.
The secondary interactions between IL-2R heterodimers and the modified IL-2 polypeptides were also measured. […] In the table below, NT indicates the composition was not tested.

[4] = test system: Treg cells (CD4+, CD25Hi, FoxP3+); assay: pStat5 induction in human primary pan T-cells, T-Reg subset; assay type: cell-based
Procedure: (§3) An experiment was performed to determine the effect of various IL-2 polypeptides on human T-cell populations. Primary pan T-cells (CD4+, CD8+ and Tregs T cells) were obtained from healthy donor buffy coat by peripheral blood mononuclear cell (PBMC) purification using ficoll gradient centrifugation followed by negative selection with magnetic beads and then cryopreserved until use. […] After incubation, cells were fixed and permeabilized using the Transcription Factor Phospho Buffer kit followed by a surface and intracellular immunostaining for CD4, CD8, CD25, FoxP3, CD45RA and pStat5 to enable cell subset identification and measurement of Stat5 (signal transducer and activator of transcription 5) phosphorylation levels. The FACS (fluorescence activated cell sorting) measurement was done either with a NovoCyte or a Quanteon Flow Cytometer from Acea.
(§4) pStat5 MFI ([…] fluorescence intensity) signals for the T-cell subsets shown in Table 12 were plotted against concentrations of aldesleukin or of modified IL-2 polypeptides. Half maximal effective concentration (EC50) was calculated based on a variable slope, four parameter analysis using GraphPad PRISM software.

[5] = test system: CD8 Teff cells (CD8+); assay: pStat5 induction in human primary pan T-cells, CD8 Teff subset; assay type: cell-based
Procedure: as §3, §4

[6] = mouse, in vivo, iv, 0.8 mg/kg
Procedure: A single-dose pharmacokinetic/pharmacodynamic experiment was performed in mice. Naïve, 6-8 weeks old, C57Bl/6 mice (Shanghai SLAC Laboratory Animal Co., LTD, Shanghai, China) received a single bolus intravenous (i.v.) injection of 52 nmoles/kg wild type or of modified IL-2 polypeptides. […] At indicated time points, blood samples were collected in the presence of EDTA either via tail vein sampling or via cardiac puncture (end-point).
Blood samples were immediately processed by centrifugation. Plasma samples were cryopreserved at −80° C. until bioanalysis.
Bioanalysis of plasma samples was performed using a qualified human IL-2 LegendPlex bead assay (Biolegend, #740717, #740368, #740758). Concentrations of wild type and of modified IL-2 polypeptides and the internal standard in samples derived from plasma were determined using human IL-2 LegendPlex bead assay. PK data were subjected to a non-compartmental pharmacokinetic analysis by using the Phoenix WinNonlin software (version 6.3, Pharsight, Mountain View, CA). The linear/log trapezoidal rule was applied in obtaining the PK parameters.
The PK parameters were determined by means of non-compartmental analysis (NCA) using R package “PK”. The area under plasma concentration-time curves (AUC0-last) were calculated using the linear trapezoidal rule on the arithmetic means at the different time points while the extrapolation necessary for the AUC0-inf and AUMC 0-Inf was achieved assuming an exponential decay on the last 3 time points.

[7] = test system: Tregs (CD4+, FoxP3+, CD25Hi); assay: Single-dose pharmacodynamics in mice, Tregs (pSTAT5, Ki67, frequency); assay type: in vivo, C57Bl/6 mice; conditions: for Tregs % of pSTAT5 positive cells / Ratio Tregs/CD8+: 1 h after injection; for Ratio Tregs/CD8+: pSTAT5 positive cells
Procedure: (§5) Cell pellets were treated with 1×Lyse/Fix buffer (BD Bioscience, 558050) during 10 min. […] Cells were then permeabilized using cold BD Perm Buffer III and stained with antibodies against either Ki67, Siglec-F, CD4, CD8, FoxP3, CD62L, CD44 or pSTAT5. The FACS (fluorescence activated cell sorting) measurement was done with a Fortessa X-20 Flow Cytometer from BD. For each cell subset indicated below in Table 14, the percentage of pSTAT5 positive cells, and percentage of Ki67 positive cells, cell counts, and cell frequency was determined. [table]

[8] = test system: CD8+ Teff (CD3+, CD8+); assay: Single-dose pharmacodynamics in mice, CD8+ Teff (pSTAT5, Ki67, frequency); assay type: in vivo, C57Bl/6 mice; conditions: for CD8+ % of pSTAT5 positive cells: 1 h after injection
Procedure: as §5

[9] = mice, 0.8 mg/kg, at peak time point

With “Aldesleukin: aldesleukin (SEQ ID NO: 2), comparator IL-2” the “Ka” value ([1]; Alpha (CD25) monomer) was 6.74e+06 M⁻¹ s⁻¹, the “dissociation rate constant (koff)” value ([1]; Alpha (CD25) monomer) was 0.154 s⁻¹ and the pKd ([1]; read-out: observed Kd with IL-2Rα) was 7.64. The “Ka” value ([2]; Beta (CD122) monomer) was 319000 M⁻¹ s⁻¹, the “koff (dissociation rate constant)” value ([2]; Beta (CD122) monomer) was 0.289 s⁻¹ and the pKd ([2]; as stated in text (FIG. 3), read-out: Kd, β subunit of the IL-2 receptor) was about 6.05. For the same substance, the “Ka” value ([3]; primary interaction) was 8.01e+06 M⁻¹ s⁻¹, the “dissociation rate constant (koff, 1/s)” value ([3]; primary interaction) was 0.00175 s⁻¹ and the “Ka” value ([3]; secondary interaction) was 5.13e+06 M⁻¹ s⁻¹. The pEC50 ([4]; pStat5 MFI, 20 min to 40 min stimulation, read-out: Tregs EC50) was 10.72, the “potency in inducing Treg cells versus Teff cells (in words)” value ([4]; pStat5 dose response curves) was “substantially more potent in inducing Treg cells than Teff cells” and the pEC50 ([5]; pStat5 MFI, 20 min to 40 min stimulation) was 8.04. For the same substance, the CD8/Tregs ([5]; ratio of CD8+ EC50 to Tregs EC50) was 477, the AUC0-last [6] was 1227 ng·h/mL and the AUCD [6] was 1534 (ng/mL*h)*(mg/kg). The Cl [6] was 10.85 mL/min/kg, the MRTlast [6] was 36.6 min and the T1/2 [6] was 20.8 min. The “Timepoint at Peak Tregs” value ([7]; Ki67+ cells, mice, 0.8 mg/kg) was 20 h, the “Timepoint at Peak Tregs” value ([7]; frequency within CD3+, mice, 0.8 mg/kg) was 20 h and the “Tregs % of Ki67+ positive cells” value [7, 9] was 28.3 ± 3.7%. The “Tregs % of Tregs within CD3+” value [7, 9] was 3.52 ± 0.4%, the “Tregs % of pSTAT5 positive cells” value ([7]; mice, 0.01 mg/kg) was 81.0 ± 5.8% and the “Tregs % of pSTAT5 positive cells” value ([7]; mice, 0.03 mg/kg) was 86.9 ± 5.2%. For the same substance, the “Tregs % of pSTAT5 positive cells” value ([7]; mice, 0.1 mg/kg) was 91.1 ± 2.9%, the “Tregs % of pSTAT5 positive cells” value ([7]; mice, 0.3 mg/kg) was 96.2 ± 1.3% and the “Tregs % of pSTAT5 positive cells” value ([7]; mice, 0.8 mg/kg) was 93.3 ± 3.8%. The “Ratio Tregs/CD8+” value ([7]; 0.01 mg/kg) was 3.8, the “Ratio Tregs/CD8+” value ([7]; 0.03 mg/kg) was 2.8 and the “Ratio Tregs/CD8+” value ([7]; 0.1 mg/kg) was 3.1. The “Ratio Tregs/CD8+” value ([7]; 0.3 mg/kg) was 1.5, the “Ratio Tregs/CD8+” value ([7]; 0.8 mg/kg) was 1.3 and the “CD8+ % of CD8+ within CD3+” value ([8]; 0.8 mg/kg, at peak time point) was 32.1 ± 3^ %. The “CD8+ % of Ki67+ positive cells” value ([8]; 0.8 mg/kg, at peak time point) was 19.6 ± 3^ %, the “CD8+ % of pSTAT5 positive cells” value ([8]; 0.01 mg/kg) was 21.3 ± 6.7% and the “CD8+ % of pSTAT5 positive cells” value ([8]; 0.03 mg/kg) was 31.3 ± 6.2%. The “CD8+ % of pSTAT5 positive cells” value ([8]; 0.1 mg/kg) was 29.6 ± 4.4%, the “CD8+ % of pSTAT5 positive cells” value ([8]; 0.3 mg/kg) was 63.2 ± 9.0% and the “CD8+ % of pSTAT5 positive cells” value ([8]; 0.8 mg/kg) was 74.1 ± 11%. For the same substance, the “Timepoint at Peak Teff” value ([8]; Ki67+ cells, 0.8 mg/kg) was 48 h and the “Timepoint at Peak Teff” value ([8]; frequency within CD3+, 0.8 mg/kg) was 36 h.
